Reference: publication PMC8541546, “Identification of HLA-A2-Restricted Mutant Epitopes from Neoantigens of Esophageal Squamous Cell Carcinoma” (Vaccines, 2021)

Key:
HLA-A*0201 molecule = target: T1, HLA-A*0201 molecule (Homo sapiens, UniProt P04439, D140Y/D185E/D98H/E176V/E277Q/G131W/G231S/I119V/I121R/I166T/I218V/L300P/L318F/N151K/N90K/P208A/P217A/Q86G/Q94H/R138H/R169H/T345S); experiment: T2A2 cell-binding assay; conditions: T2A2 cells; FI = (MFI of peptide - MFI of control without peptide)/MFI of control without peptide; anti-HLA-A2 BB7.2, flow cytometry; FI > 1 = high binding affinity
T1 construct: T2A2 cells (TAP-deficient HLA-A2 molecules overexpressing, cultured in IMDM medium); host or cells: T2A2 cells
Experimental: The binding affinity of neoepitope to the MHC molecule and the stable neoepitope/MHC complex are critical for inducing T cell immune response, so we first performed a T2A2 cell-binding assay and stabilization assay. The T2A2 cell-binding assay was measured as in our previous study. The binding affinity was computed as follows: fluorescence index (FI) = (mean fluorescence intensity (MFI) of peptide group-MFI of the dissolved buffer without peptide group)/MFI of the dissolved buffer without peptide group.

[1] = tested on: peptide-pulsed T2A2 cells; experiment: IFN-γ intracellular staining of peptide-induced T cells from donor PBMCs; assay type: cell-based, human; conditions: PBMCs of HLA-A2+ donors B–F, DCs pulsed with 10 μg/mL peptide, three rounds
Experimental: (§1) DCs involve and play an important role in initiating CD8^+ T cell response. Consequently, ten HLA-A2^+ healthy donors’ PBMCs were isolated, autologous DCs were generated, and CTLs were induced according to the procedure described previously. In brief, PBMCs were seeded at a density of 5 × 10^6 cells/well in a 6-well plate, and after 3 h, the non-adherent cells were removed and cryopreserved for future incubation with mature autologous DCs. Differentiation of the adherent cells into dendritic cells was induced by GM-CSF (100 ng/mL, #300-03, PeproTech, Rocky Hill, NJ, USA) and IL-4 (100 ng/mL; #200-04, PeproTech, USA), with replenishment every 2 days. On day 5, maturation of DCs was induced using 100 ng/mL LPS (#L4516, Sigma-Aldrich, St. Louis, MO, USA), and maturation was checked on day 8 by flow cytometry (BD FACSCelesta™) using markers for anti-human HLA-DR, anti-human CD80, and anti-human CD86. Then, mature DCs (1 × 10^5) were pulsed with each 10 μg /mL individual peptide or no peptides (control) for 2 h at 37 °C. Next, peptide-pulsed DCs were used to prime the previously cryopreserved autologous peripheral blood lymphocytes (PBLs) at a DC/PBL ratio of 1:10 using complete RPMI-1640 media supplemented with 100 IU/mL rhIL-2 (#200-02, PeproTech, USA) and 10 ng/mL rhIL-7 (#200-07, PeproTech, USA). Half of the feeding medium was replenished every 2 days. After 7 days, PBLs were restimulated with freshly pulsed autologous DCs every 7 days.
When target cells were peptide-pulsed T2A2 cells (MUT peptide or its corresponding WT peptide), peptide-specific T cells (from HLA-A2^+ healthy donors B–F) stimulated by MUT peptides were co-cultured with these cells in the presence of BFA for 5 h. Then T cells were marked by anti-human CD3 and anti-human CD8α monoclonal antibody. Thirty minutes later, cells were fixed by fixation buffer (Thermo Scientific, Waltham, MA, USA) for thirty minutes and washed by permeabilization buffer (Thermo Scientific, USA). Permeabilized T cells were marked by anti-human IFN-γ monoclonal antibody.

[2] = tested on: peptide-pulsed T2A2 cells; experiment: Cytotoxicity assay of peptide-induced T cells from donor PBMCs; assay type: cell-based, human; conditions: donors B–F; E/T 12.5:1, 25:1, 50:1; T2A2 loaded with 50 μg/mL peptide
Experimental: as §1
The cytotoxicity of peptide-specific T cells stimulated by mutant peptides was tested by using Cell Trace Far Red (Thermo Scientific, USA). Transfected cells were suspended in PBS (1 × 10^6 cells/mL) and labelled with Cell Trace Far Red as follows: Control target cells and test target cells were marked by 50 μM and 1 mM Cell Trace Far Red, respectively, at 37 °C for 20 min, protected from light. After incubation, target cells were washed with complete media at 37 °C for 5 min. […] Subsequently, test target cells were mixed with control target cells in a tube, washed once, and analyzed by flow cytometry. Specific lysis (%) = (numbers of control target cells—numbers of test target cells)/numbers of control target cells × 100% [28, 29], where, for tumor cells, the control target cells refer to KYSE140-WT cells marked with 50 μM Cell Trace Far Red, and the test target cell refers to KYSE140-WT or KYSE140-MUT cells marked with 1 mM Cell Trace Far Red, respectively (peptide-specific T cells generated from donors G–K’s PBMCs in vitro or generated from spleen lymphocytes of HLA-A2.1/K^b Tg mice in vivo). Additionally, for T2A2 target cells, T2A2 cells unpulsed and marked with 50 μM Cell Trace Far Red were used as the control target cells, while T2A2 cells loaded with MUT peptides or the corresponding WT peptides (50 μg/mL) or T2A2 cells only were marked with 1 mM Cell Trace Far Red and were used as test target cells (peptide-specific T cells stimulated from donors B–F’s PBMCs).

KYSE140-MUT cells = experiment: Intracellular cytokine assay with minigene-transfected tumor cells in vitro; assay type: cell-based, human; conditions: donors G–K; KYSE140/KYSE150 transfected with WT or MUT minigene; IFN-γ and granzyme B
Experimental: as §1
Then two vectors were transduced into KYSE140 (HLA-A2^+) and KYSE150 (HLA-A2^−) to get KYSE140-MUT (HLA-A2^+, MUT peptide^+), KYSE140-WT (HLA-A2^+, MUT peptide^−), KYSE150-MUT (HLA-A2^−, MUT peptide^+) and KYSE150-WT (HLA-A2^−, MUT peptide^−) cells (see Supplementary Materials for details).
As for the transfected cells serving as target cells in the in vitro investigation, peptide-specific T cells (from HLA-A2^+ healthy donors G–K) induced by MUT peptides were co-cultured with tumor cell lines transfected with WT or MUT minigenes in IMDM medium in the presence of BFA for 5 h. […]

Sequence	FI (fluorescence index) (HLA-A*0201 molecule)	IFN-γ release of MUT peptide-induced T cells, MUT versus WT peptide-loaded T2A2 cells [1]	lysis cytotoxicity of MUT peptide-induced T cells on T2A2 cells [2]	processing and presentation of MUT peptide by transfected cells, recognized by CTLs (KYSE140-MUT cells)
QVTDFLAPL [PCLO-E4090Q]	1.85	immunogenic	could efficiently lyse corresponding MUT peptide-pulsing T2A2 cells	endogenously processed and presented by transfected cells
ILWRQDINL [NFE2L2-D13N]	1.67	immunogenic	could efficiently lyse corresponding MUT peptide-pulsing T2A2 cells	endogenously processed and presented by transfected cells
LLGPNSFEV [TP53-R267P]	1.81	immunogenic	could efficiently lyse corresponding MUT peptide-pulsing T2A2 cells	endogenously processed and presented by transfected cells
